Laboratory results from patent publication US7056938B1, “Method for scavenging radicals with urocanic acid, derivatives and analogues” (Academisch Ziekenhuis Bij De Univ., priority 1999, dated 2006).
Like-named read-outs stand apart in the source and are kept apart here. Marks after values point to notes of the source that are not given here.

What was measured:
[1] = system: rat; conditions: oral rat; cited from earlier work
[2] = deoxyribose (dR) degradation test, hydroxyl radical scavenging; assay type: biochemical; conditions: for SECOND ORDER RATE CONSTANT for reaction with hydroxyl radicals: mean of n slopes, sodium phosphate buffer pH 7.2
Protocol: Trans-UCA, cis-UCA, related imidazoles and non-imidazole compounds were tested with regard to their ability to compete with deoxyribose to scavenge hydroxyl radicals. On exposure to hydroxyl radicals deoxyribose is degraded into malondialdehyde, which reacts with thiobarbituric acid to form a pink chromogen. Powerful hydroxyl-radical scavengers will compete with deoxyribose, resulting in a reduced amount of malondialdehyde. Ten compounds, UCA, UCA analogues, alanine and uric acid (FIG. 1) were tested on their ability to scavenge hydroxyl radicals.
Method: the deoxyribose (dR) degradation test. The test was analogous to an earlier described method. Briefly, the reactions were performed in 5 mL screw cap glass tubes in a final volume of 1.0 mL sodium phosphate buffer (50 mM; pH 7.2), containing 3.0 mM 2 deoxy-D-ribose, 0.5 mM hydrogen peroxide and one of the test compounds at graded concentrations. The reaction was started by the addition of premixed disodium EDTA and ferrous iron solution (final concentrations 0.5 mM and 0.2 mM, respectively). The mixture was left for 15 minutes at room temperature. After addition of 1.0 mL 1% thiobarbituric acid in 50 mM NaOH and 0.75 mL 2.8% trichloroacetic acid, the tubes were heated for 20 minutes in a boiling water bath. The pink color was read at 532 nm and reciprocal absorption values were plotted against the concentration of the test compound after subtraction of appropriate blanks. A series of six duplicate determinations from test compound dilutions was employed to construct a graph slope for the calculation of a rate constant value. The mean, SD, number of rate constants and the percentage of inhibition of deoxyribose degradation, calculated for each test compound, are listed. Results. All second-order rate constants for reaction with hydroxyl radicals and, in addition, the percentage inhibition of deoxyribose degradation with equimolar concentrations (3 mM) of scavenger are summarized in Table 1. Trans-UCA and cis-UCA are substantially more powerful in scavenging hydroxyl radicals (8.0 and 7.1×10^3 M^−1,s^−1, respectively), than the other 4-(5-)-substituted imidazoles, including L-histidine (2.6×10^2 M^−1,s^−1). L-histidine, the precursor of UCA, was included as a known moderate scavenger with structural similarities to UCA. L-alanine was used as a known poor scavenger. Trans-FAA was tested as a non-imidazole acrylic acid derivative, having a furan ring instead.
FIG. 2. A determination of the second order rate constants of trans-UCA and cis-UCA with hydroxyl radicals. The rate constant was derived from the slope of the line (k=slope×kdR×[dR]×A0), where A0 is the absorbance, measured in the absence of hydroxyl radical scavenger. KdR was taken as 3.1×10^9 M^−1,s^−1, derived from pulse radiolysis studies, and [dR]=3 mM. […] The other scavengers were studied similarly.

[3] = system: ear swelling response from BALB/c mice; experiment: inhibition of contact hypersensitivity, ear swelling response; conditions: for inhibition of CHS (in words): as ammonium salts
[4] = Fenton oxidation of UCA (Fe2+ / hydrogen peroxide, HPLC); assay type: physicochemical
Protocol: Trans-UCA and cis-UCA were separated from each other and from several UCA oxidation products on a 4.6×250 mm Alltima C18 and Luna C18 reversed-phase column (Alitech, Deerfield, Ill. and Phenomenex, Torrence, Calif., resp.) with a flow of 0.8 mL/min, delivered by P-3500 HPLC-pumps (Pharmacia, Uppsala, Sweden). Samples of 20 to 200 μL were injected by a Promis II autosampler (Spark Holland, Emmen, The Netherlands) and chromatographic data were recorded on an SP 4270 integrator (Spectra Physics, San Jose, Calif.). Peak area data from samples were only processed under identical HPLC circumstances. A UV-detector (Applied Biosystems, model 759A, Foster City, Calif.) was set for 226 nm detection. Isocratic elution was performed with 10 mM ammonium formate buffer, containing 0.2–0.8 mM tetrabutylammonium(TBA)formate and 1% acetonitrile (pH 7.2). Collected fractions were acidified with formic acid up to a final concentration of 100 mM and passed through C18 could phase extraction columns (J T Baker, Deventer, The Netherlands) in order to remove TBA.
[…] In addition, two hydroxyl-radical-generating systems with copper ions (Cu^2+) were used, consisting of 50 μM Cu^2+ with either 500 μM hydrogen peroxide or 5 mM ascorbic acid.
In the next series of experiments we studied the Fenton oxidation of UCA, representing another natural oxidation process. Trans-UCA and cis-UCA isomers were Fenton oxidized by ferorus ions (Fe^2+) and hydrogen peroxide at physiological concentrations. The initial hydrogen peroxide concentration was 500 μM and the ferrous ion concentration was varied from 0 to 500 μM. In all Fenton oxidation reactions the degree of UCA-isomer breakdown was calculated from their reduced peak areas. The oxidation reaction must have been completed within 2 minutes for all reaction conditions, because no further breakdown was observed after prolonged incubation.
When the Fenton reaction was performed in water instead of phosphate buffer, the oxidative breakdown of trans-UCA was enhanced irrespective of the UCA concentration. The turbidity seen in reactions performed in phoshate buffer (10 mM) with high Fe^2+ concentration (>100 μM) was probably due to the formation of insoluble, iron phosphate, thereby reducing the free availability of Fe^2+. Table 3 summarizes the difference between water and phosphate medium for trans-UCA at an initial concentration of 40 μM with respect to its breakdown and the formation of Fenton-oxidation products. Similarly to the photo-oxidation experiments, the peak areas of the 8 major oxidation products were summed. […] A close resemblance was observed between the chromatographic patterns of UCA Fenton oxidation products (not shown) and those of UCA photo-oxidation products. Three of them has been identified (vide infra).
In another series of experiments we studied the Fenton oxidation of UCA, representing another natural oxidation process. The initial hydrogen peroxide concentration was 500 μM in all experiments and the ferrous ion concentration was varied from 0 to 400 μM. Four sets of conditions were compared: […] in phosphate buffer pH 7.2, 2. Fe^2+ in phosphate buffer plus EDTA, 3. Fe^2− without buffer with a initial pH of 5.5–5.3 and 4. Cu^2+ in phosphate buffer plus ascorbate. The degree of breakdown was similar for both UCA isomers.

[5] = [SCAVENGER] = [DEOXYRIBOSE] = 3 Mm

Compound	hydroxyl radical scavenging ability (in words) [2]	SECOND ORDER RATE CONSTANT for reaction with hydroxyl radicals [2]	INHIBITION of DEOXYRIBOSE DEGRADATION [2, 5] [%]	other results
Cc1ncc[nH]1 [2-Methylimidazole, 2-methylimidazole]	stronger hydroxyl radical scavengers	1.17e+10 M⁻¹ s⁻¹	–	LD50 [1]: 1500 mg/kg; INHIBITION of DEOXYRIBOSE DEGRADATION ([2]; 15 min, 3 mM, pH 7.2): 76%
O=C(O)CCc1c[nH]cn1 [Dihydrourocanic acid, 3-(imidazol-4-yl)-propionic acid]	moderate scavenging ability	3.7e+09 M⁻¹ s⁻¹	–	INHIBITION of DEOXYRIBOSE DEGRADATION ([2]; 15 min, 3 mM, pH 7.2): 34%
O=CC(=O)O [Glyoxylic acid, glyoxylic acid]	–	–	–	inhibition of CHS (in words) [3]: did not exhibit significant inhibition
O=Cc1c[nH]cn1 [ImCHO, imidazole-4-carboxaldehyde]	–	–	–	yield of ImCOOH from ImCHO as starting material ([4]; after Fenton- or photooxidation): ~100%
O=C(O)Cc1c[nH]cn1 [Imidazole-4acetic acid, imidazole-4-acetic acid]	moderate scavenging ability	2.2e+09 M⁻¹ s⁻¹	30	–
C[C@H](N)C(=O)O [L-Alanine, L-alanine]	–	1e+08 M⁻¹ s⁻¹	2	–
N[C@@H](Cc1c[nH]cn1)C(=O)O [L-Histidine, L-histidine]	–	2.6^(c) × 10^9 M^−1 · s^−1	34	rate constant for scavenging hydroxyl radicals [2]: 2.6e+09 M⁻¹ s⁻¹
O=c1[nH]c(=O)c2[nH]c(=O)[nH]c2[nH]1 [Uric acid, uric acid]	–	2.78e+10 M⁻¹ s⁻¹	–	INHIBITION of DEOXYRIBOSE DEGRADATION ([2]; 15 min, 3 mM, pH 7.2): 91%
O=C(O)/C=C\c1c[nH]cn1 [cis-Urocanic acid]	–	7.1e+09 M⁻¹ s⁻¹	64	broken down by the unbuffered Fenton oxidation system ([4]; initial UCA concentration 250 μM, unbuffered): 75%; ear swelling ([3]; 1 g/l, maximum normalized to 100%): 31%; second order rate constant in the particular set of FIG. 2 ([2]; single set of FIG. 2, kdR 3.1×10^9, [dR]=3 mM): 7.33 ×10^9 M^−1,s^−1
c1c[nH]cn1 [imidazole]	stronger scavengers than the UCA isomers	–	–	–
O=C(O)C(=O)O [oxalic acid]	–	–	–	inhibition of CHS (in words) [3]: did not exhibit significant inhibition
O=C(O)/C=C/c1ccco1 [trans-2-Furylacylic acid, trans-2-furylacrylic acid]	very poor scavenging ability	<1e+08 M⁻¹ s⁻¹	–	INHIBITION of DEOXYRIBOSE DEGRADATION [2]: <2%
